Results on four molecules are retold here after paper PMC6719172, “Inhibition of CpLIP2 Lipase Hydrolytic Activity by Four Flavonols (Galangin, Kaempferol, Quercetin, Myricetin) Compared to Orlistat and Their Binding Mechanisms Studied by Quenching of Fluorescence” (Molecules, 2019).

Each structure is given as a SMILES string. Values after ≈ are worked out from the molar mass of the structure shown. Read-outs that look alike come from different tables or passages of the source.

One series addresses CpLIP2 lipase (Candida parapsilosis, UniProt Q8NIN8). Briefly: Inhibition of CpLIP2 hydrolytic activity (ethyl oleate hydrolysis, GC). The series is classed as biochemical. The settings on record: for Ki: non-competitive or uncompetitive model. On the procedure: The effect of inhibitor concentrations on the hydrolysis reaction rate in standard conditions was assumed to follow either a non-competitive or an uncompetitive model, corresponding to Equation (1):(1) Ki=I/ V0/Vi−1 where V0 and Vi are the initial rates of the reaction without or with inhibitor at concentration I.
Standard CpLIP2 hydrolytic activity measurement. Hydrolysis activities were determined by measuring the initial rates of fatty acid and esters production (µmol·min^−1·mL^−1), using ethyl oleate (C18:1, EE) as substrates. Specific activity is the total activity expressed in µmol·min^−1·mL^−1 in relation to protein concentration (mg·mL^−1). Experiments were conducted as described by. Hydrolysis of ethyl oleate (EO) was performed in aqueous emulsions at 30 °C. This emulsion consisted of 100 µmol·mL^−1 EO emulsified by sonication (Branson Sonifier 250, 20 s, 200 watts, 145 µm amplitude) in an aqueous solution of 20 g·L^−1 poly vinyl alcohol. The reactions of hydrolysis were prepared in glass test tube by adding 100 μL of ethyl oleate emulsion to 800 µL of sodium phosphate buffer 50 mM, pH 6.5; then the solutions were incubated in water bath at 30 °C for 5 min. The reaction was started by the addition of 100 µL of enzyme solution of CpLIP2 with final concentration 3 µg·mL^−1 with activity 2000 U/mL.
The enzyme solution was pre-incubated at 25 °C, with continuous stirring at 350 rpm. Pre-incubation was conducted with 1980 µL CpLIP2 lipase diluted in sodium NaH2PO4/Na2HPO4 phosphate buffer (50 mM, pH 6.5) containing 20 µL absolute EtOH at 2 different times (1 and 30 min). This pre-incubation phase was conducted in closed vials placed during 2 h on a Radleys StarFish Multi-Experiment Workstation. The reaction was conducted for 15 min at 30 °C, and then stopped by adding 950 µL of a mixture of ethanol/sulphuric acid (100:0.8, v/v). After the addition of 50 µL of internal standards (ethanolic solution of pentadecanoic acid and its ethyl and methyl esters, 1 µmol each), lipids were extracted from the mixture with 1 mL of hexane. Samples were then prepared for analyzing esters and free fatty acids by gas chromatography (GC) as follows. Hexane extract (200 µL) was reacted with 25 µL pyridine and 25 µL N-methyl-tri (methylsilyl)-trifluoroacetamide (MSTFA) as silylating agent. Mixtures were incubated in water bath at 50 °C for 20 min, and then samples were ready for analysis. Reaction rates were determined by the analysis of fat composition by capillary gas chromatography after 15 min reaction. It was checked that less than 30% of the total substrate was converted at the end of the 15 min reaction.
A Shimadzu GC 2010 plus gas chromatograph equipped with a flame ionization detector, an automatic sampler (injected volume 0.1 μL) and a split/splitless injector was used for analysis. The capillary column was a DB-5ht (15 m × 0.25 mm, Phenomenex, Le Pecq, France). The helium carrier flow was 1 mL min^−1and the split ratio was 1:50. Temperature conditions were, for reactions with individual substrates: injector 280 °C, detector 290 °C, oven 200–225 °C at 10 °C min^−1 then to 260 °C at 35 °C·min^−1 for ethyl ester (EE) and fatty acid (FA) of C18:1. Calibration curves were realized using emulsions of mixtures of FA and monoesters prepared according to the same protocol, without enzyme and alcohol.
In order to measure the residual lipase activity in the presence of potential inhibitors, the previous method was conducted in the presence and absence of the inhibitors. For each potential inhibitor, the lipase-catalyzed rate of hydrolysis was evaluated after a pre-incubation period between the lipase and the potential inhibitors, which were solubilized in absolute ethanol at 1% of final concentration. The preincubation was performed at 25 °C with continuous stirring at 350 rpm with different concentration of inhibitors (14, 27.5, 55 µM) which represented, respectively 25, 50, 100-fold the final lipase concentration (0.55 µM). […]

The next series has as its target pancreatic lipase (PL). Further details: method as in PMID 23363068. The settings on record: in vitro assay; cited from earlier work.
On the set-up of series [1]: method as in PMID 24601218, doi:10.1021/ja00090a032. Conditions: cited from earlier work.
Series [2] has as its target C. rugosa commercial lipase. Further details: method as in doi:10.1016/j.molcatb.2006.02.012. The settings on record: cited from earlier work.
Setting [3] is: estimated after 30 min of pre-incubation.
Where [4] appears, read: concentration not stated (14–55 µM tested), up to 30 min pre-incubation.
[5] abbreviates: read-out: inhibition of CpLIP2 activity.

CpLIP2 lipase, sequence (Q8NIN8 entry or part of it): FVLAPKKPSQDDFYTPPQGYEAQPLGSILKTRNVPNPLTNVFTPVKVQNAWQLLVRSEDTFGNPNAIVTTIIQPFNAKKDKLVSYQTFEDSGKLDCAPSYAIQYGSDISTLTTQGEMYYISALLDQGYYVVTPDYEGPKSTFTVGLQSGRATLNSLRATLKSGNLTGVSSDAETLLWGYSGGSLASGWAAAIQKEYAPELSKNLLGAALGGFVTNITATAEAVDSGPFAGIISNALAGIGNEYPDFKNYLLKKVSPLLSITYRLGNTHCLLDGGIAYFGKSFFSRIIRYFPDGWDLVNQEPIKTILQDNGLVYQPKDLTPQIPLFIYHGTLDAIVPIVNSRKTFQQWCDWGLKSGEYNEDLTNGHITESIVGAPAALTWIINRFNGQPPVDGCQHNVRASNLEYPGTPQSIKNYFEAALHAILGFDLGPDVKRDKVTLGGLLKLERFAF

Consider `O=c1c(O)c(-c2ccccc2)oc2cc(O)cc(O)c12` [GAL, galangin], for which the Ki on CpLIP2 lipase (setting [3]) is greater than 150 µM. In addition, the “inhibition of CpLIP2 activity” value at CpLIP2 lipase (after 1 min pre-incubation, concentration not given) is “no inhibition”; on CpLIP2 lipase (setting [4]), no more than 20%. For the same molecule, on pancreatic lipase (PL), the IC50 was 48.2 mg/mL (≈ 178 mM).

Consider `O=c1c(O)c(-c2ccc(O)cc2)oc2cc(O)cc(O)c12` [KAE, kaempferol], for which the “inhibition of CpLIP2 activity” value at CpLIP2 lipase (55 µM (100-fold molar excess, highest concentration), pre-incubation time not stated, 55 µM) turned out to be 90%. For the same molecule, the Ki was 4 µM on CpLIP2 lipase (estimated after 1 min of pre-incubation) and 6 µM at CpLIP2 lipase (setting [3]). At CpLIP2 lipase (read-out: inhibition of CpLIP2 activity, 27.5 µM (50-fold lipase concentration), pre-incubation time not stated), the inhibition at 27.5 µM was greater than 80%. Moreover, the inhibition at 55 µM on CpLIP2 lipase (read-out: inhibition of CpLIP2 activity, 55 µM (100-fold molar excess, highest concentration), pre-incubation time not stated) is 92%. Besides, the inhibition at 14 µM on CpLIP2 lipase (read-out: inhibition of CpLIP2 catalytic activity, 14 µM, within 1 min of pre-incubation) worked out at 80%. Besides, the pKa1 in series [1] is 8.2. Also, in series [2], the IC50 is 6300 µM.

Consider `O=c1c(O)c(-c2cc(O)c(O)c(O)c2)oc2cc(O)cc(O)c12` [MYR, myricetin], for which, at CpLIP2 lipase, the “inhibitory effect relative to THL (times lower)” value is “about 100 times”. The Ki on CpLIP2 lipase (setting [3]) was 60 µM. Further, at CpLIP2 lipase (setting [4]), the “inhibition of CpLIP2 activity” value is “about 20%”. Further, the pKa1 in series [1] is recorded as 6.6.

`O=c1c(O)c(-c2ccc(O)c(O)c2)oc2cc(O)cc(O)c12` [QUE, quercetin]: the “inhibitory effect relative to THL (times lower)” value on CpLIP2 lipase was “about 100 times”. The Ki at CpLIP2 lipase (setting [3]) was 80 µM. Further, at CpLIP2 lipase (setting [5]), the inhibition at 14 µM stood at 37%, the inhibition at 27.5 µM is 39% and the inhibition at 55 µM came to 35%.
